The test system of this test is T1, tubulin.
T1 construct: gene TUBB2B
The test can be described thus: turbidimetric tubulin polymerization assay ([…] nm). To be noted: tubulin 10 µM. The format is biochemical.

The IC50 is the concentration that inhibits the measured activity by half. Molecule `COc1ccc(/C=C\c2cc(OC)c(OC)c(OC)c2)cc1O` [combretastatin A-4] showed an IC50 of […]. The figure for `COc1ccc(OC)c(/C=C/C(=O)c2ccc(OC)cc2OC)c1` [compound 1, hit 1] is 3.7 ± 0.5 µM.
